Assay results as given in paper PMC8741257, “Identification of novel non-toxic and anti-angiogenic α-fluorinated chalcones as potent colchicine binding site inhibitors” (Journal of Enzyme Inhibition and Medicinal Chemistry, 2022).

What was measured:
[1] = tested on: microtubule network of MGC-803 cells; assay: Immunofluorescent staining of the cellular microtubule network; type: cell-based, human; conditions: 18, 36, and 72 nM
Experimental: Since tubulin-microtubule system plays a crucial role in mechanical solidity, cell motility and mitosis, an immunofluorescent staining assay was further carried out in MGC-803 cells to evaluate the inhibitory effects of 4c on microtubule cytoskeleton. […] Upon treatment with higher concentrations of 4c, the dispersed tubulin dimers were even more obvious and there is no tubular structure left.
MGC-803 cells (3 × 10^4 cells/well) were seeded into 6 well-plates and then treated with vehicle control 0.1% DMSO and 4c (18, 36, 72nΜ). The cells were rinsed twice with PBS and fixed by 4% paraformaldehyde for 20 min. Subsequently, microtubule detection was performed using a fluorescent antibody against α-tubulin in 5% BSA and incubated for 5 ∼ 6 h at room temperature. To stain cell nucleus, crystals were incubated with Hoechst for 10 min. After washing with PBST to remove redundant stain, the samples were visualised under an Olympus laser scanning confocal microscope.

[2] = tested on: MGC-803 cells; assay: Cell apoptosis assay (Annexin V/PI, flow cytometry); type: cell-based, human; conditions: 48 h, control 1.99%
Experimental: According to above-mentioned cell cycle analysis, we suppose that 4c might induce cells apoptosis, like other microtubule polymerisation inhibitors. Thus, the effects of 4c on MGC-803 cell apoptosis were examined by flow cytometry.
MGC-803 cells at 8 × 10^4 cells/well were seeded in 12-well cell culture plates overnight, and then the cultured cells were incubated with a dose range of compounds 4c for 48 h. The treated or untreated cells were washed twice with PBS and stained by Annexin V-PE and PI for 15 min without light exposure according to the manufacturer’s protocol. Apoptosis was quantified using a flow cytometer (Becton, Dickinson and Company, USA).

[3] = tested on: MMP of MGC-803 cells; assay: Mitochondrial membrane potential (JC-1, flow cytometry); type: cell-based, human; conditions: 72 nM, 48 h
Experimental: There is a close relationship between mitochondria and apoptosis, and a decrease in mitochondrial membrane potential is one of the irreversible events that occur early in apoptosis cells. Therefore, effect of compound 4c on MMP of MGC-803 cells was examined by cationic JC-1 staining method and flow cytometry.
The cultured cells were spread in 6-well plates with about 1.5 × 10^5 cells per well and incubated overnight at 37 °C. Different concentrations of the 4c were added to the wells, and the incubation was continued for 48 h. The wells were washed twice with JC-1 staining buffer (1×) after resuspension with an appropriate amount of JC-1 staining buffer (1×), flow cytometry assays were performed according to standard procedures

[4] = tested on: HUVECs (human umbilical vein endothelial cells); assay: Wound healing migration assay; type: cell-based; conditions: 10 µM, 48 h, control 65%
Experimental: HUVECs (human umbilical vein endothelial cells) grown on Matrigel were commonly used as a tube formation model for studying the physiological and pathological processes of the vascular system in vitro, and a widely studied human endothelial cell type in angiogenesis. The effect of 4c on endothelial cell migration was assessed by using HUVECs. Standardised wounds were made in confluent monolayers of HUVECs and then exposed to compound 4c at 2.5, 5 and 10 µM for 48 h. […] We further evaluated the capacity of 4 s on endothelial cell invasion using a Transwell assay.
MGC-803 cells and HUVECs were seeded in 24-well plates and cultivated for 24 h at 37 °C. The cells were scribed vertically with a gun tip and washed with PBS to remove dead cells. The containing different concentrations of 4c were added to the scratched monolayers. The migrated cells were photographed under a light microscope at indicated time points from the scratch. Take a picture and use the image J software to calculate the area of the cell scratches.

[5] = tested on: HUVECs; assay: Tube formation assay on Matrigel; type: cell-based, human; conditions: 2.5 µM
Experimental: The formation of HUVEC tube represents the key steps in angiogenesis. Thus, we further tested the anti-vascular activity of 4c by performing a tube formation assay. As shown in Figure 10 HUVECs in the control group formed integrated tubules with multicentric junctions on the Matrigel matrix, while the tubes were fragmentary after exposure to 4c.
The matrix gel was thawed overnight at 4 °C and then added to 96 well plates. After incubated at 37 °C for 45 min, the matrix gel was solidified. Different concentrations of 4c were added to each well at the density of HUVECs was 1 × 10^5/well. After incubated at 37 °C for 6–8 h, the formation of tubules was observed under microscope

[6] = tested on: Tg(flk1: EGFP) zebrafish embryos; assay: Zebrafish angiogenesis assay; type: in vivo
Experimental: Since zebrafish embryos emerged as a powerful model for studying human diseases, the transgenic zebrafish with green fluorescent protein (GFP) labelled endothelial cells have been used extensively for testing angiogenesis in vivo. In this work, an anti-angiogenetic activity of 4c was confirmed by Tg(flk1: EGFP) zebrafish embryos in vivo assay. Fluorescently labelled 3hpf period embryos were treated with different doses of 4c and incubated at 28.5 °C. Until 30hpf, zebrafish was imaged under a fluorescent microscopy to observe the affection of applied agents on intersegmental vessels (ISVs) development. As shown in the Figure 11, ISVs were clearly observed in newly born zebrafish embryos of solvent-treated control group, which were growing at regular longitudinal and equidistant intervals.
The transgenic flk: enhanced GFP zebrafish embryos were transferred into 6-well plates (n = 30 per well) with 1 ml of aquaculture water (0.2 g/L of Instant Ocean Salt in distilled water) and raised at 28 °C. Then the embryos dechorionated at 12 h post fertilisation (hpf) was treated with the indicated concentrations of 4c or vehicle (DMSO). About 30 embryos were screened for each concentration gradient. At 30hpf, the zebrafish embryos were stripped, anaesthetised, and fixed with agarose gel. The images were taken under the microscope, and the number of blood vessels between the segments was recorded. Results were obtained from three independent determinations and presented as mean ± SD.

## COc1cc(C(=O)/C(F)=C/c2c[nH]c3cc(Br)ccc23)cc(OC)c1OC [4c, (Z)-3–(6-bromo-1H-indol-3-yl)-2-fluoro-1–(3,4,5-trimethoxyphenyl)prop-2-en-1-one]
[1]
  Effect on cellular microtubule network: remarkable disruption of microtubule reticular network
[2]; 18 nM (lowest dose)
  percentage of apoptotic cells: 19.12%
[2]; 72 nM (highest dose)
  percentage of apoptotic cells: 57.99%
[3]; control 7.13
  JC-1 green fluorescence intensity (lower gate): 55.6%
[3]; control 92.4
  JC-1 red fluorescence intensity (upper gate): 41.3%
[4]
  wound closure rates: 11%
[5]
  HUVEC cord formation, tube area and length: dramatically suppressed
[6]; dose ≥ 5 µM
  embryo development and blood vessels: marked delay in development and only scattered or fragmentary blood vessels were observed
[6]; imaged at 30hpf
  lowest dose with anti-angiogenic phenotype: 2.5 µM
[6]; imaged at 30hpf, different doses
  number and length of intersegmental vessels (ISVs): all dose-dependently reduced
